Measured values from US7553969B1, “Substituted phenethylamine derivatives” (Chugai Seiyaku Kabushiki Kaisha, priority 1999, dated 2009).
Where a SMILES comes first, the peptide text is derived from it. [ ]: non-standard residue; d: D form. The star is where a group is joined. ξ: configuration not given here. NMeTyr(3-tBu) = CN[C@@H](Cc1ccc(O)c(C(C)(C)C)c1)C(=O)O; ξNMeTyr(3-tBu) = CNC(Cc1ccc(O)c(C(C)(C)C)c1)C(=O)O; Tyr(3-tBu) = CC(C)(C)c1cc(C[C@H](N)C(=O)O)ccc1O; NMePhe(4-F) = CN[C@@H](Cc1ccc(F)cc1)C(=O)O; Phe(4-Cl) = N[C@@H](Cc1ccc(Cl)cc1)C(=O)O; Phe(4-F) = N[C@@H](Cc1ccc(F)cc1)C(=O)O; ξPhe(4-CN) = N#Cc1ccc(CC(N)C(=O)O)cc1; NMeIle(3ξ) = CCC(C)[C@H](NC)C(=O)O; NMePhg = CN[C@H](C(=O)O)c1ccccc1; ξW = NC(Cc1c[nH]c2ccccc12)C(=O)O; NMeL = CN[C@@H](CC(C)C)C(=O)O; NMeV = CN[C@H](C(=O)O)C(C)C; Morpholide = C1CN(*)CCO1; NHtBu = CC(C)(C)N*

Legend:
motilin receptor = molecular target: T1, motilin receptor (Oryctolagus cuniculus, UniProt G1T803); assay: Motilin receptor binding test (125I motilin, rabbit duodenum protein sample); conditions: 125I motilin 25 pM, concentration reducing specific binding by 50%
T1 construct: homogenized in 50 mM Tris buffer to prepare a protein sample; from tissue; host or cells: rabbit duodenum homogenate (mucous membrane separated)
T1 sequence (G1T803 1-400): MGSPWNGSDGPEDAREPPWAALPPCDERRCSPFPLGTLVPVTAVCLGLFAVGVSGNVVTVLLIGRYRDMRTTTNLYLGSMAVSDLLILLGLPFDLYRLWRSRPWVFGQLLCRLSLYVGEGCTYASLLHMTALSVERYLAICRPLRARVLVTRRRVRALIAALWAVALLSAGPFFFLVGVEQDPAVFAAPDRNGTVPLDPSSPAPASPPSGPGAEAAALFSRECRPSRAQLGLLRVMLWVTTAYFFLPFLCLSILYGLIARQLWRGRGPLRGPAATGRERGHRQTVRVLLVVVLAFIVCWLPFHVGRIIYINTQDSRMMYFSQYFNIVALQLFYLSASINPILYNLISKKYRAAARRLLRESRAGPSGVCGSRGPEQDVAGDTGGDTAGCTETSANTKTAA
Experimental: Motilin receptor binding test
A motilin receptor binding test was conducted in the following manner [Vantrappen et al., Regul. Peptides, 15, 143 (1986)]. The duodenum was extracted from a slaughtered rabbit, had the mucous membrane separated and homogenized in 50 mM Tris buffer to prepare a protein sample. The protein sample was incubated together with ^125I motilin 25 pM and thereafter the radioactivity bound to the protein was measured. Specific binding was defined as the difference between the radioactivity in the case of adding a great excess amount of motilin (10^−7 M) and that in the case of no adding. The activity of the compound was expressed by IC50 (in nM), as the concentration sufficient to reduce the specific binding by 50%.

[1] = system: specimen of longitudinal muscle in the duodenum extracted from a rabbit (motilin-induced contraction); assay: Action on the motilin-induced contraction of a specimen of longitudinal muscle in the duodenum extracted from a rabbit; conditions: Oryctolagus cuniculus, organ bath, Krebs solution 28° C., read-out: Contraction suppressing test, pA2 (converted)
Experimental: Action on the Contraction of a Specimen of Longitudinal Muscle in the Duodenum Extracted from a Rabbit
The action on the motilin-induced contraction of a specimen of longitudinal muscle in the duodenum extracted from a rabbit was investigated by the following method. A duodenum specimen (5×15 mm) extracted from a slaughtered rabbit was suspended in an organ bath (10 ml) such that the longitudinal muscle would run vertically; the bath was filled with a Krebs solution kept at 28° C. A mixed gas (95% O2 and 5% CO2) was continuously bubbled into the Krebs solution and the contraction of the duodenum specimen was recorded isotonically (with a 1-g load) via an isotonic transducer (ME-3407, ME Commercial, Tokyo, Japan). The degree of contraction was expressed in relative values, with the contraction by acetylcholine at a dose of 10^−4 M being taken as 100%. The activity of the compound was calculated as pA2 value indicating its effect on the dose-dependent muscle contraction by the motilin put into the organ bath.

IC50 (motilin receptor) | SMILES | Kb [1]
0.32 nM | CCNC(=O)[C@H](Cc1ccc(O)c(C(C)(C)C)c1)N(C)C(=O)[C@H](C(C)C)N(C)C(=O)[C@@H](N)Cc1ccc(F)cc1 [Example 104, Phe(4-F)-N-Me-Val-N-Me-Tyr(3-tBu)-NHEt] (H-[Phe(4-F)]-[NMeV]-[NMeTyr(3-tBu)]-NHEt) | 0.794 nM
1 nM | CC(C)[C@@H](C(=O)N[C@H](CNC(N)=O)Cc1ccc(O)c(C(C)(C)C)c1)N(C)C(=O)[C@@H](N)Cc1ccc(F)cc1 [Example 9, N-(2-(2-((2-amino-3-(4-fluorophenyl)propionyl)-N-methylamino)-3-methylbutyrylamino)-3-(3-tBu-4-hydroxyphenyl)propyl)urea] | 1 nM
0.52 nM | CC(C)[C@@H](C(=O)N[C@@H](Cc1ccc(O)c(C(C)(C)C)c1)c1ncno1)N(C)C(=O)[C@@H](N)Cc1ccc(F)cc1 [Example 22, 2-((2-amino-3-(4-fluorophenyl)propionyl)-N-methylamino)-3-methylbutyric acid 2-(3-t-butyl-4-hydroxyphenyl)-1-(1,2,4-oxadiazol-5-yl)ethylamide] | 5.01 nM
0.31 nM | CCNC(=O)[C@H](Cc1ccc(O)c(C(C)(C)C)c1)NC(=O)[C@H](C(C)C)N(C)C(=O)[C@H](Cc1ccc(F)cc1)NC [Example 102, N-Me-Phe(4-F)-N-Me-Val-Tyr(3-tBu)-NHEt] (H-[NMePhe(4-F)]-[NMeV]-[Tyr(3-tBu)]-NHEt) | 1 nM
2.3 nM | CNC(=O)[C@H](Cc1ccc(O)c(C(C)(C)C)c1)N(C)C(=O)[C@H](C(C)C)N(C)C(=O)[C@@H](N)Cc1ccc(F)cc1 [Example 36, Phe(4-F)-N-Me-Val-N-Me-Tyr(3-tBu)-NHMe] (H-[Phe(4-F)]-[NMeV]-[NMeTyr(3-tBu)]-NHMe) | 1.58 nM
0.62 nM | CC(C)[C@@H](C(=O)N[C@@H](Cc1ccc(O)c(C(C)(C)C)c1)C(=O)NC(C)(C)C)N(C)C(=O)[C@@H](N)Cc1ccc(F)cc1 [Example 63, Phe(4-F)-N-Me-Val-Tyr(3-tBu)-NHtBu] (H-[Phe(4-F)]-[NMeV]-[Tyr(3-tBu)]-NHtBu) | 3.98 nM
0.39 nM | CCNC(=O)[C@H](Cc1ccc(O)c(C(C)(C)C)c1)N(CC)C(=O)[C@H](C(C)C)N(C)C(=O)[C@@H](N)Cc1ccc(F)cc1 [Example 107, Phe(4-F)-N-Me-Val-N-Et-Tyr(3-tBu)-NHEt] | 2 nM
0.86 nM | CCNC(=O)[C@H](Cc1ccc(O)c(C(C)(C)C)c1)NC(=O)[C@H](C(C)C)N(C)C(=O)[C@H](Cc1ccc(F)cc1)NCC [Example 103, N-Et-Phe(4-F)-N-Me-Val-Tyr(3-tBu)-NHEt] | 1.26 nM
0.82 nM | CC(C)[C@@H](C(=O)N[C@H](CC(N)=O)Cc1ccc(O)c(C(C)(C)C)c1)N(C)C(=O)[C@@H](N)Cc1ccc(F)cc1 [Example 15, 2-((2-amino-3-(4-fluorophenyl)propionyl)-N-methylamino)-3-methylbutyric acid 2-(3-t-butyl-4-hydroxyphenyl)-1-carbamidomethylethylamide] | 3.16 nM
0.24 nM | CCNC(=O)[C@H](Cc1ccc(O)c(C(C)(C)C)c1)NC(=O)[C@H](C(C)C)N(C)C(=O)[C@@H](N)Cc1ccc(F)cc1 [Example 101, Phe(4-F)-N-Me-Val-Tyr(3-tBu)-NHEt] (H-[Phe(4-F)]-[NMeV]-[Tyr(3-tBu)]-NHEt) | 1.26 nM
0.47 nM | CC(C)[C@@H](C(=O)N[C@@H](Cc1ccc(O)c(C(C)(C)C)c1)C(=O)NCO)N(C)C(=O)[C@@H](N)Cc1ccc(F)cc1 [Example 122, Phe(4-F)-N-Me-Val-Tyr(3-tBu)-NHCH2OH] | 1 nM
0.81 nM | CCN[C@@H](Cc1ccc(F)cc1)C(=O)N(C)[C@H](C(=O)N[C@@H](Cc1ccc(O)c(C(C)(C)C)c1)C(N)=O)C(C)C [Example 30, N-Et-Phe(4-F)-N-Me-Val-Tyr(3-tBu)-NH2] | 0.794 nM
0.67 nM | CC(C)[C@@H](C(=O)N[C@@H](Cc1ccc(O)c(C(C)(C)C)c1)c1nccs1)N(C)C(=O)[C@@H](N)Cc1ccc(F)cc1 (single isomer, unassigned) [Example 23, 2-((2-amino-3-(4-fluorophenyl)propionyl)-N-methylamino)-3-methylbutyric acid 2-(3-tert-butyl-4-hydroxyphenyl)-1-(thiazol-2-yl)ethylamide] | 0.501 nM
0.7 nM | CC(C)[C@@H](C(=O)N[C@H](CO)Cc1ccc(O)c(C(C)(C)C)c1)N(C)C(=O)[C@@H](N)Cc1ccc(F)cc1 [Example 17, 2-(2-((2-amino-3-(4-fluorophenyl)propionyl)-N-methylamino)-3-methyl-butyrylamino)-3-(3-tBu-4-hydroxyphenyl)propanol] | 0.794 nM

The remaining lines, values behind:

SMILES | IC50 (motilin receptor) | Kb [1]
CCNC(=O)[C@H](Cc1ccc(O)c(C(C)(C)C)c1)N(CC)C(=O)[C@H](C(C)C)N(C)C(=O)[C@H](Cc1ccc(F)cc1)NCC [Example 109, N-Et-Phe(4-F)-N-Me-Val-N-Et-Tyr(3-tBu)-NHEt] | 0.17 nM | 2 nM
CCN(C(=O)[C@H](C(C)C)N(C)C(=O)[C@H](Cc1ccc(F)cc1)NC)[C@@H](Cc1ccc(O)c(C(C)(C)C)c1)C(=O)NCO [Example 128, N-Me-Phe(4-F)-N-Me-Val-N-Et-Tyr(3-tBu)-NHCH2OH] | 1.5 nM | 2 nM
CCC(C)[C@@H](C(=O)N(C)[C@@H](Cc1ccc(O)c(C(C)(C)C)c1)C(N)=O)N(C)C(=O)[C@@H](N)Cc1ccc(F)cc1 (stereo partly drawn) [Example 142, Phe(4-F)-N-Me-Ile-N-Me-Tyr(3-tBu)-NH2] (H-[Phe(4-F)]-[NMeIle(3ξ)]-[NMeTyr(3-tBu)]-NH2) | 0.62 nM | 2.51 nM
CN(C(=O)[C@@H](N)Cc1ccc(F)cc1)[C@H](C(=O)N(C)[C@@H](Cc1ccc(O)c(C(C)(C)C)c1)C(N)=O)c1ccccc1 [Example 166, Phe(4-F)-N-Me-Phg-N-Me-Tyr(3-tBu)-NH2] (H-[Phe(4-F)]-[NMePhg]-[NMeTyr(3-tBu)]-NH2) | 1.8 nM | 0.158 nM
CC(C)[C@@H](C(=O)N(C)[C@@H](Cc1ccc(O)c(C(C)(C)C)c1)C(=O)N1CCN(CC(=O)O)CC1)N(C)C(=O)[C@@H](N)Cc1ccc(F)cc1 [Example 136, 2-[4-((2S)-2-{(2S)-2-[(2S)-2-amino-3-(4-fluorophenyl)-N-methylpropanolyamino)-3,N-dimethylbutanoylamino}-3-[3-(tert-butyl)-4-hydroxyphenyl]propanoyl)piperazinyl]acetic acid] | 6.8 nM | 25.1 nM
CCNC(=O)[C@H](Cc1ccc(O)c(C(C)(C)C)c1)N(CC)C(=O)[C@H](C(C)C)N(C)C(=O)[C@H](Cc1ccc(F)cc1)NC [Example 108, N-Me-Phe(4-F)-N-Me-Val-N-Et-Tyr(3-tBu)-NHEt] | 0.43 nM | 1 nM
CC(C)[C@@H](C(=O)N(C)[C@@H](Cc1ccc(O)c(C(C)(C)C)c1)C(=O)N1CCOCC1)N(C)C(=O)[C@@H](N)Cc1ccc(F)cc1 [Example 133, (2S)-2-[(2S)-2-amino-3-(4-fluorophenyl)-N-methylpropanolyamino]-N-((1S)-1-{[3-(tert-butyl)-4-hydroxyphenyl]methyl}-2-morpholin-4-yl-2-oxoethyl)-3-methyl-N-methylbutanamide] (H-[Phe(4-F)]-[NMeV]-[NMeTyr(3-tBu)]-Morpholide) | 1.1 nM | 6.31 nM
CC(C)[C@@H](C(=O)N(C)[C@@H](Cc1ccc(O)c(C(C)(C)C)c1)C(N)=O)N(C)C(=O)[C@@H](N)Cc1ccc(O)cc1F [Example 26, Tyr(2-F)-N-Me-Val-N-Me-Tyr(3-tBu)-NH2] | 7.3 nM | 10 nM
CC(C)C[C@@H](C(=O)N(C)[C@@H](Cc1ccc(O)c(C(C)(C)C)c1)C(N)=O)N(C)C(=O)[C@@H](N)Cc1ccc(F)cc1 [Example 144, Phe(4-F)-N-Me-Leu-N-Me-Tyr(3-tBu)-NH2] (H-[Phe(4-F)]-[NMeL]-[NMeTyr(3-tBu)]-NH2) | 2 nM | 3.16 nM
CC(C)[C@@H](C(=O)N(C)C(Cc1ccc(O)c(C(C)(C)C)c1)C(N)=O)N(C)C(=O)C(N)Cc1c[nH]c2ccccc12 (stereo partly drawn) [Example 183, Trp-N-Me-Val-N-Me-Tyr(3-tBu)-NH2] (H-[ξW]-[NMeV]-[ξNMeTyr(3-tBu)]-NH2) | 0.57 nM | 0.316 nM
CC(C)[C@@H](C(=O)N(C)[C@@H](Cc1ccc(O)c(C(C)(C)C)c1)C(N)=O)N(C)C(=O)[C@@H](N)Cc1ccc(Cl)cc1 [Example 2, Phe(4-Cl)-N-Me-Val-N-Me-Tyr(3-tBu)-NH2] (H-[Phe(4-Cl)]-[NMeV]-[NMeTyr(3-tBu)]-NH2) | 0.71 nM | 2 nM
CC(C)[C@@H](C(=O)N(C)C(Cc1ccc(O)c(C(C)(C)C)c1)C(N)=O)N(C)C(=O)C(N)Cc1ccc(C#N)cc1 (stereo partly drawn) [Example 182, Phe(4-CN)-N-Me-Val-N-Me-Tyr(3-tBu)-NH2] (H-[ξPhe(4-CN)]-[NMeV]-[ξNMeTyr(3-tBu)]-NH2) | 2.3 nM | 3.16 nM
CCN[C@@H](Cc1ccc(F)cc1)C(=O)N(C)[C@H](C(=O)N(C)[C@@H](Cc1ccc(O)c(C(C)(C)C)c1)C(=O)NCO)C(C)C [Example 126, N-Et-Phe(4-F)-N-Me-Val-N-Me-Tyr(3-tBu)-NHCH2OH] | 1.9 nM | 0.631 nM
